In the assay the test system is Malassezia furfur 14521. In words: Antifungal activity on M. furfur (resazurin viability assay, MIC and ΣFIC synergy evaluation). The class given is cell-based. Particulars: M. furfur 14521, YPD broth, 30° C., 72 hours, resazurin readout. Here is the method:
The samples as given in Table-1 were subjected to their anti fungal efficacy on M. furfur as described hereinafter.
The test organism used in the assay is Malassezia furfur 14521. The M. furfur were revived from glycerol stock in YPD agar plates (yeast extract peptone dextrose media) containing 1% corn oil. The composition of YPD is yeast extract:10 g/litre, dextrose 20 g/litre, Peptone 20 g/litre and […]. The plates were incubated at 30° C. for 72 hours for forming fungal colonies. A suspension culture of M. furfur was made using the colonies from plates in YPD broth. The optical density of the suspension culture was adjusted to 0.6 using spectrophotometer. This suspension was diluted in the ratio of 1:10 using YPD broth and 100 μl of this culture was added into each well of 96 well test plate. A stock solution of 4× strength of test ingredients (itaconic acid and sodium benzoate) was prepared for each of the concentrations tested eg for 0.125% test concentration of itaconic acid/sodium benzoate a stock of 0.5% was prepared in YPD broth. 50 μl of each of the test ingredient was added to 100 μl of M. furfur culture, making the final volume to 200 μl. In wells containing only one test ingredient, (itaconic acid or sodium benzoate only) 50 μl of test ingredient was added to 100 μl of fungal culture and then made up the volume to 200 μl with YPD broth. The plates were incubated at 30° C. for 72 hours. Post incubation 10 μl of 1% resazurin was added to each well and incubated for 18 hours at 30° C. […] The anti-fungal efficacy of the ingredient or combination of ingredients is calculated based on the colour development.
The combinations of test ingredients with synergistic anti-fungal benefits were evaluated using ΣFIC method. The ΣFIC of the combinations were calculated using the following formula • ΣFIC of combination A+B=[Concentration of A]/MIC of A+[concentration of B]/MIC of B, where MIC is the Minimum inhibitory concentration (MIC) of ingredient. […]
In general terms: The colour change of resazurin is a common sign of viable cells or microbes.

`C=C(CC(=O)OC)C(=O)OC` [Dimethyl itaconate]: the “MIC (Minimum inhibitory concentration)” value was determined as 0.5 wt %.

Turning to `C=C(CC(=O)O)C(=O)O` [Itaconic acid], the “MIC (Minimum inhibitory concentration)” value is listed as 0.25 wt %.

In the case of `O=C([O-])c1ccccc1.[Na+]` [Sodium Benzoate], the “MIC (Minimum inhibitory concentration)” value came to 0.5 wt %.

Values taken from patent US20220287936A1, “AN ANTIDANDRUFF COMPOSITION” (Conopco, Inc., d/b/a UNILEVER, priority 2019, published 2022).
